In US12285013B2, “Processing method for increasing seed production rate of seed fruits of Cucumis sativus L” (Yangzhou University, priority 2023, dated 2025):

Test system: seed fruits of Cucumis sativus L.
Assay: Soaking and dipping of female flowers of seed fruits of Cucumis sativus L. in the pollination stage
Format: in vivo
Settings: 50 μM solution with Tween 80 10000:1, greenhouse
Method: A processing method for increasing seed production efficiency of seed fruits of Cucumis sativus L., comprising the following steps: • (1) Preparing a plant growth regulator according to a formula proportion; • Preparing a 5-azacytidine solution with a concentration of 50 μM, adding an emulsifier Tween 80 at the same time, and mixing the 5-azacytidine solution and the emulsifier Tween 80 at a proportion of 10000:1 to obtain the plant growth regulator; • (2) Selecting seed fruits of Cucumis sativus L. growing naturally in a greenhouse and reaching a pollination stage, and dipping female flowers thereof with the plant growth regulator prepared in step (1) before pollination; • (3) Picking male flowers for pollination after the female flowers are completely dry; • (4) Dipping the pollinated female flowers again; • (5) Conducting field routine cultivation management.
In step (2), the preserved solution of the prepared plant growth regulator is poured into any container, and the female flowers of the seed fruits of Cucumis sativus L. reaching a pollination stage are completely immersed in the plant growth regulator in the container for at least 5 seconds.
In step (2), in the greenhouse, the temperature is stabilized at 20° C.-35° C., the humidity is 70%-90%, the pH value of the cultivation soil is 6.5, a selected species of Cucumis sativus L. is a species of North China Cucumis sativus L. used for seed production, a row spacing for seed fruit cultivation is fixed at 75 cm, a planting distance is 25 cm, and the number of plants planted in each row is 80.
Step (3) is specifically as follows: picking male flowers blooming on the same plant, removing all petals, poking stamens of the male flowers into the female flowers after the female flowers soaked and dipped by the plant growth regulator are completely dry, and repeating the process for multiple times to increase pollination success rate.
Step (4) is specifically as follows: repeating the soaking and dipping treatment described in step (2) for successfully pollinated female flowers of Cucumis sativus L. on the third day after pollination.
In a third aspect of the present invention, a processing method for increasing seed production efficiency of seed fruits of Cucumis sativus L. is provided, which mainly comprises the following steps: • (1) Preparing a reagent. Specifically: preparing a 5-azacytidine solution with a concentration of 50 μM, adding an emulsifier Tween 80 at the same time according to a proportion of 10000:1, and preserving the reagent in a refrigerator at 4° C. • (2) Selecting seed fruits of Cucumis sativus L. growing naturally in a greenhouse and reaching a pollination stage, and dipping female flowers thereof with the reagent prepared in step (1) before pollination. […]

[1] = female flowers dipped before pollination and on the third day after

Structure (SMILES): Nc1ncn([C@@H]2O[C@H](CO)[C@@H](O)[C@H]2O)c(=O)n1 [5-azacytidine]
- fruit length of the seed fruits [1]: significantly reduced
- number of seeds of the seed fruits [1]: without affecting
- seed production efficiency of the seed fruits [1]: increased
- weight of Cucumis sativus L. (fruit weight) (female flowers treated in the pollination stage): significantly reduce
